In patent publication US12285407B2, “Bis-indolylmethane derivatives and uses thereof” (The University of The West Indies, priority 2018, dated 2025):
Read-outs that look alike come from different tables or passages of the source.

How the values were obtained:
[1] = system: Klebsiella pneumoniae; test: Checkerboard synergy (FICI) of antibiotics with SP-BIM; type: cell-based; conditions: for MIC: 24 h, antibiotic alone, read-out: MIC antibiotic only
[2] = system: Klebsiella pneumoniae; test: Adjuvant broth microdilution (antibiotic MIC with SP-BIM at 50 μg/mL); type: cell-based; conditions: antibiotic alone
[3] = system: Candida albicans; test: Checkerboard synergy (FICI) of antibiotics with SP-BIM; parameters: MIC SP-BIM 13 only / MIC in combination: Antibiotic / MIC antibiotic only: unit not given beside the values
[4] = system: Escherichia coli; test: microbe, parasite or virus in culture; type: cell-based; conditions: antibiotic alone, Table 6, read-out: MIC of antibiotic, No compound
[5] = system: Staphylococcus aureus; test: Checkerboard synergy (FICI) of antibiotics with SP-BIM; type: cell-based; conditions: Staphylococcus aureus, Staphylococcus aureus; for MIC: 24 h, antibiotic alone, read-out: MIC antibiotic only
[6] = system: Escherichia coli O157:H7; type: cell-based; conditions: antibiotic alone, no SP-BIM
[7] = system: Enterobacter cloacae; test: Adjuvant broth microdilution (antibiotic MIC with SP-BIM at 50 μg/mL); type: cell-based; conditions: antibiotic alone
[8] = system: Streptococcus pneumoniae; test: as above; type: cell-based; conditions: Streptococcus pneumoniae; Streptococcus pneumonia; antibiotic alone; Table 5; read-out: MIC of antibiotic, No compound
[9] = system: Escherichia coli; test: Checkerboard synergy (FICI) of antibiotics with SP-BIM; parameters: MIC SP-BIM 13 only / MIC in combination: Antibiotic: unit not given beside the values; conditions: for MIC: 24 h
[10] = system: Streptococcus pneumoniae; test: as above; type: cell-based; conditions: Streptococcus pneumonia (title: Streptococcus pyogenes)
[11] = system: Pseudomonas aeruginosa; test: Adjuvant broth microdilution (antibiotic MIC with SP-BIM at 50 μg/mL); type: cell-based; conditions: antibiotic alone
[12] = system: Bacillus cereus; test: as above; type: cell-based; conditions: antibiotic alone, Table 9
[13] = system: Bacillus cereus; test: Checkerboard synergy (FICI) of antibiotics with SP-BIM; type: cell-based; conditions: for MIC: 24 h, antibiotic alone, read-out: MIC antibiotic only
[14] = SP-BIM 9 in combination with the labelled antibiotic
[15] = SP-BIM 13 in combination with the labelled antibiotic
[16] = antibiotic in combination with SP-BIM 9
[17] = antibiotic in combination with SP-BIM 13
[18] = MIC of the antibiotic in combination with SP-BIM 13

CC[C@H]1OC(=O)[C@H](C)[C@@H](O[C@H]2C[C@@](C)(OC)[C@@H](O)[C@H](C)O2)[C@H](C)[C@@H](O[C@@H]2O[C@H](C)C[C@H](N(C)C)[C@H]2O)[C@](C)(O)C[C@@H](C)C(=O)[C@H](C)[C@@H](O)[C@]1(C)O [Erythromycin, erythromycin]
MIC ([1]; SP-BIM 9 checkerboard): 250 µg/mL
MIC ([1]; SP-BIM 13 checkerboard): 16 µg/mL
FIC of SP-BIM 9 [1, 14]: 0.5
FIC of SP-BIM 13 [1, 15]: 1.0
Interpretation ([1]; antibiotic + SP-BIM 9): Additive (Additive: FICI>0.5-1.0)
Σ FIC ([1]; antibiotic + SP-BIM 9): <0.8
Interpretation ([1]; antibiotic + SP-BIM 13): Indifferent (Indifferent: FICI>1.0-4.0)
Σ FIC ([1]; antibiotic + SP-BIM 13): <2.0
MIC in combination, Antibiotic [1, 16]: 63 µg/mL
MIC in combination, Antibiotic [1, 17]: 16 µg/mL
FIC of antibiotic ([1]; in combination with SP-BIM 9): 0.252
FIC of antibiotic ([1]; in combination with SP-BIM 13): 1.0
MIC of antibiotic, No Compound ([2]; Klebsiella pneumonia, no SP-BIM): >250 µg/mL
MIC ([2]; Klebsiella pneumoniae, Table 7, read-out: MIC of antibiotic, No compound): 32 µg/mL
MIC ([3]; 24 h, read-out: MIC antibiotic only): 16 µg/mL
MIC in combination: Antibiotic [3, 18]: 1
FIC of SP-BIM 13 [3, 15]: 1.0
Interpretation ([3]; antibiotic + SP-BIM 13): Indifferent (Indifferent: FICI>1.0-4.0)
Σ FIC ([3]; antibiotic + SP-BIM 13): <1.1
FIC of antibiotic ([3]; combination with SP-BIM 13): 0.1
MIC [4]: > 250 µg/mL
MIC ([5]; SP-BIM 9 checkerboard): 0.1 µg/mL
MIC ([5]; SP-BIM 13 checkerboard): 0.1 µg/mL
FIC of SP-BIM 9 [5, 14]: 0.50
FIC of SP-BIM 13 [5, 15]: 0.5
Interpretation ([5]; antibiotic + SP-BIM 9): Additive (Additive: FICI>0.5-1.0)
Σ FIC ([5]; antibiotic + SP-BIM 9): <0.70
Interpretation ([5]; antibiotic + SP-BIM 13): Additive (Additive: FICI>0.5-1.0)
Σ FIC ([5]; antibiotic + SP-BIM 13): 0.7
MIC in combination, Antibiotic [5, 16]: 0.05 µg/mL
MIC in combination, Antibiotic [5, 17]: 0.02 µg/mL
FIC of antibiotic ([5]; in combination with SP-BIM 9): 0.20
FIC of antibiotic ([5]; in combination with SP-BIM 13): 0.2
MIC of antibiotic, No Compound [6]: 250 µg/mL
MIC of antibiotic, No Compound [7]: >250 µg/mL
MIC [8]: 4 µg/mL
MIC ([9]; read-out: MIC antibiotic only, Escherichia coli, antibiotic alone): 16 µg/mL
MIC ([9]; read-out: MIC antibiotic only, Escherichia coli, antibiotic alone, SP-BIM 9 checkerboard): 250 µg/mL
MIC in combination: Antibiotic [9, 18]: 16
FIC of SP-BIM 9 [9, 14]: 1
FIC of SP-BIM 13 [9, 15]: 1.0
Interpretation ([9]; antibiotic + SP-BIM 9): Indifferent (Indifferent: FICI>1.0-4.0)
Σ FIC ([9]; antibiotic + SP-BIM 9): <2.0
Interpretation ([9]; antibiotic + SP-BIM 13): Indifferent (Indifferent: FICI>1.0-4.0)
Σ FIC ([9]; antibiotic + SP-BIM 13): <2.0
MIC in combination, Antibiotic [9, 16]: 250 µg/mL
FIC of antibiotic ([9]; combination with SP-BIM 13): 1.0
FIC of antibiotic ([9]; in combination with SP-BIM 9): 1
FIC of SP-BIM 9 [10, 14]: 1.00
Interpretation ([10]; antibiotic + SP-BIM 9): Indifference
Σ FIC ([10]; antibiotic + SP-BIM 9): <2.00
MIC in combination, Antibiotic [10, 16]: >250 µg/mL
FIC of antibiotic ([10]; in combination with SP-BIM 9): 1.00
MIC ([10]; Streptococcus pneumoniae, 24 h, antibiotic alone, SP-BIM 9 checkerboard, read-out: MIC antibiotic only): > 250 µg/mL
MIC of antibiotic, No Compound [11]: >250 µg/mL
MIC of antibiotic, No Compound [12]: 4 µg/mL
MIC ([13]; SP-BIM 9 checkerboard): 16 µg/mL
MIC ([13]; SP-BIM 13 checkerboard): 16 µg/mL
MIC in combination, SP-BIM 9 ([13]; SP-BIM 9 concentration in combination with the labelled antibiotic): >250 µg/mL
FIC of SP-BIM 9 [13, 14]: 1
FIC of SP-BIM 13 [13, 15]: 0.5
Interpretation ([13]; antibiotic + SP-BIM 9): Indifferent (Indifferent: FICI>1.0-4.0)
Σ FIC ([13]; antibiotic + SP-BIM 9): <2.0
Interpretation ([13]; antibiotic + SP-BIM 13): Synergy (Synergy: FICI≤0.5)
Σ FIC ([13]; antibiotic + SP-BIM 13): 0.5
MIC in combination, Antibiotic [13, 16]: 16 µg/mL
MIC in combination, Antibiotic [13, 17]: 0.05 µg/mL
FIC of antibiotic ([13]; in combination with SP-BIM 9): 1
FIC of antibiotic ([13]; in combination with SP-BIM 13): 0.01
